Measurements reported in article PMC7856885 (Advanced Science, 2020).
pIC50: −log10 of the molar value. “Also recorded” adds a separate entry of the source. Where two headings read alike, the source gives them in different places. Residues, ends and D or L forms follow the SMILES beside them. *: point of attachment. X1 = CC(=O)O[C@H]1C(=O)[C@@]2(C)[C@H]([C@H](OC(=O)c3ccccc3)[C@]3(O)C[C@H](OC(=O)[C@H](OC(=O)CC(=O)*)[C@@H](NC(=O)c4ccccc4)c4ccccc4)C(C)=C1C3(C)C)[C@]1(OC(C)=O)CO[C@@H]1C[C@@H]2O

What was measured:
[1] = tumor tissue from brains of nude mice with orthotopic U87MG transplantation after i.v. injection; settings: BALB/C athymic nude mice, up to 12 h
[2] = tumor‐free (normal) brain tissue of nude mice with orthotopic U87MG transplantation after i.v. injection; settings: BALB/C athymic nude mice, up to 12 h
MMP‐2 = assay: recombinant human MMP‐2 protein (5 ng µL^−1), activated with 4‐aminophenylmercuric acetate; settings: 37 °C, up to 3 h
U87MG = assay: MTS cell proliferation assay; assay type: cell-based; settings: Homo sapiens, U-87 MG, linear regression
Protocol: (§1) The human GBM cell lines (U87MG and U251) were respectively obtained from the American Type Culture Collection (ATCC, Manassas, VA) and the China Academic Sinica Cell Repository (Shanghai, China) and cultured in accordance with the protocol of the supplier. In brief, all the cell lines were maintained in Dulbecco's Modified Eagle Medium (DMEM; Gibco, Grand Island, NY) supplemented with 10% fetal bovine serum (FBS; Biological Industries, Kibbutz Beit Haemek, Israel). Cells were incubated in a humidified incubator at 37 °C under 5% CO2 atmosphere.
(§2) The cells treated with PBS and 100 × 10^−6 м SynB3‐PVGLIG were used as the control and the dual‐functional peptide control, respectively. After treatment, the cells were washed with PBS three times and subsequently incubated with 20 µL Cell Titer 96AQeuous One Solution Reagent (Promega, Madison, WI, USA) for 2 h at 37 °C. The absorbance was measured on a Synergy microplate reader (BioTek Instruments, Winooski, VT) at 490 nm. All the data were obtained from three independent experiments performed in three wells. The absorbance of cells in the control group was taken as 100% viability, and the inhibition rate of cell viability was counted by using the following equation: % Inhibition rate = (Absorbancecontrol − Absorbancetest)/(Absorbancecontrol − Absorbanceblank) × 100.

U251 = assay: MTS cell proliferation assay; assay type: cell-based; settings: Homo sapiens
Protocol: as §1, §2

U87MG+MMP‐2 siRNA = assay: MTS cell proliferation assay; assay type: cell-based; settings: Homo sapiens
Protocol: as §1
(§3) Homo‐MMP‐2 siRNA and nonsilencing siRNA were designed and synthesized by GenePharma (Suzhou, China). The transfection of siRNA was performed using the X‐tremeGENE siRNA transfection reagent (Roche, Mannheim, Germany) in accordance with the manufacturer's instructions. Before transfection, all the cell lines were inoculated at a density of 5 × 10^5 cells per well in a 6‐well plate. After incubation overnight, the cells were washed with fresh DMEM medium without FBS. At the same time, the reagent of transfection was mixed with homo‐MMP‐2 siRNA or nonsilencing siRNA (50 × 10^−9 м) for 15 min at a room temperature. The solution of the transfection complex was then added into the cell for 24 h. As a negative control group, a nonsilencing siRNA was transfected in the cell line in order to eliminate the influence of the transfection reagent.
as §2

U251+MMP‐2 siRNA = assay: MTS cell proliferation assay; assay type: cell-based; settings: Homo sapiens
Protocol: as §1, §3, §2

[3] = Real‐time fluorescence imaging (Cy5) and biodistribution analysis; assay type: in vivo, U87MG xenograft nude mice; settings: Cy5‐labeled; for Drug distribution at the tumor site in the brain: 5.25 µmol/5 mL kg^−1
Protocol: An untreated group was administered with physiological saline as a control. Real‐time fluorescence images were captured and analyzed using the IVIS Lumina Imaging System (PerkinElmer, Waltham, MA). […] At 0.5, 2, 4, 12, 24 and 48 h after administration, 3 mice were taken from each group to capture real‐time fluorescence images of the tumor and drug distribution, and the images were analyzed by the IVIS Lumina Imaging System. The excitation and emission quantitative wavelengths used were 640 nm and 700 nm, respectively. At the end of each experiment, animals were euthanized and their brains, lungs, hearts, livers, and kidneys were harvested and further tested by the IVIS Lumina imaging system to determine the drug distribution in tissue from each organ.

[4] = Solubility in PBS at 3 mg mL^−1 (appearance of the solution); assay type: physicochemical
[5] = target: T1, recombinant human MMP‐2 protein (Homo sapiens, UniProt P08253); assay: Release study: cleavage by MMP‐2, HPLC/MS; assay type: in vitro ADME
T1 construct: purchased PeproTech (Rocky Hill, NJ, USA)
T1 sequence (P08253 110-660): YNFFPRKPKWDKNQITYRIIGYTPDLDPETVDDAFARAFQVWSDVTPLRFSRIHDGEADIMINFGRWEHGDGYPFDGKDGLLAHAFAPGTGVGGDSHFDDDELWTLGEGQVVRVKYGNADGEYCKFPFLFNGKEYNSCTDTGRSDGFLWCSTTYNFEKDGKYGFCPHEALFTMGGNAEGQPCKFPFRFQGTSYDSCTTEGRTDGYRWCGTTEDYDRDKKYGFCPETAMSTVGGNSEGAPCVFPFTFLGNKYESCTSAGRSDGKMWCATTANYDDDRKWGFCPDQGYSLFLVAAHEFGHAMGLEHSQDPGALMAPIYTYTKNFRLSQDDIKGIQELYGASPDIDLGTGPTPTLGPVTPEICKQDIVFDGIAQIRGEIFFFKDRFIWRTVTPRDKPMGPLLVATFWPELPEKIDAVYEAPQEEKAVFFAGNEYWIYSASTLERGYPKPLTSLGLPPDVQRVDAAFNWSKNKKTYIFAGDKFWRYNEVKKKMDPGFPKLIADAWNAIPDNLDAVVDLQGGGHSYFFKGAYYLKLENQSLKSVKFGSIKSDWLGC
Protocol: The recombinant human MMP‐2 protein with 62.0 kDa molecular weight was purchased from PeproTech (Rocky Hill, NJ, USA). To observe the ability of cleavage in vitro, MMP‐2 was incubated with 4‐aminophenylmercuric acetate (7 × 10^−3 M) at 37 °C for 1 h. […] The reacting solution (50 µL) was then collected and analyzed through HPLC/MS. The spectra data were collected at 220 nm using gradient solvent conditions. BEH C18, 1.7 × 10^−6 м, 100 × 2.1 mm column was used. The chromatographic conditions used for the analyses were: solvent A – 0.1% formic acid in water; solvent B – 0.1% formic acid in acetonitrile: 0–15 min: 2% MeCN, 15–18 min: 100% MeCN, 18–20 min: 2% MeCN, with a flow rate of 0.3 mL min^−1.

[6] = Cerebral distribution: free PTX in tumor and tumor‐free brain tissue by HPLC/MS; assay type: in vivo, nude mice with orthotopic U87MG transplantation
Protocol: PTX levels in the mouse brains were measured by the HPLC/MS method. […] Tumor‐free brain tissue as well as the tumor were isolated and weighed separately. The tissue was placed on a 35 mm dish and washed with PBS on ice. The tissue was then cut into small pieces with a surgical scissor and transferred into a 1.5 mL centrifuge tube. Appropriate amounts of 50% methanol were added into the tube to prepare the tissue suspension (0.2 g mL^−1). The tissue suspensions were thoroughly homogenized by an ultrasonic cell disrupter. Thereafter, the tissue homogenates were centrifuged at 10 000 × g for 30 min. The precipitate was removed, and the supernatant was collected for further content analysis by HPLC/MS. […] The drug response values were obtained and analyzed.

[7] = 5.25 µmol/5 mL kg^−1, tail vein

Row | pIC50 (U87MG; 4 h) | pIC50 (U87MG; 24 h) | pIC50 (U87MG; 48 h) | pIC50 (U251; U-251, U251, 4 h) | pIC50 (U251; U-251, U251, 24 h) | pIC50 (U251; U-251, U251, 48 h) | pIC50 (U87MG+MMP‐2 siRNA; 4 h) | pIC50 (U87MG+MMP‐2 siRNA; 24 h) | pIC50 (U87MG+MMP‐2 siRNA; 48 h) | pIC50 (U251+MMP‐2 siRNA; 4 h) | pIC50 (U251+MMP‐2 siRNA; 24 h) | pIC50 (U251+MMP‐2 siRNA; 48 h) | Compound | Drug distribution at the tumor site in the brain [3] | Tissues in which the fluorescence signal (Cy5) was mainly detected [3, 7] | also measured
1 |  |  |  |  |  |  |  |  |  |  |  |  | PVGLIG-RRLSYSRRRF |  |  | fragment found [1]: free PTX, 2 h; fragment found [2]: free PTX, 2 h; fragment found (MMP‐2): PVG‐PTX, 0.5 h; also recorded: SynB3-LIG
2 | 3.83 | 4.33 | 4.50 | 3.74 | 4.33 | 4.56 | 3.68 | 4.43 | 4.54 | 3.87 | 4.50 | 4.63 | CC(=O)O[C@H]1C(=O)[C@@]2(C)[C@H]([C@H](OC(=O)c3ccccc3)[C@]3(O)C[C@H](OC(=O)[C@H](O)[C@@H](NC(=O)c4ccccc4)c4ccccc4)C(C)=C1C3(C)C)[C@]1(OC(C)=O)CO[C@@H]1C[C@@H]2O [PTX, Paclitaxel] | no drug distribution was detected | lungs, liver, and kidneys | Solubility in PBS (appearance) [4]: nearly insoluble
3 |  |  |  |  |  |  |  |  |  |  |  |  | CC[C@H](C)[C@H](NC(=O)[C@H](CC(C)C)NC(=O)CNC(=O)[C@@H](NC(=O)[C@@H]1CCCN1C(=O)CC(=O)O[C@@H](C(=O)O[C@H]1C[C@@]2(O)[C@@H](OC(=O)c3ccccc3)[C@@H]3[C@]4(OC(C)=O)CO[C@@H]4C[C@H](O)[C@@]3(C)C(=O)[C@H](OC(C)=O)C(=C1C)C2(C)C)[C@@H](NC(=O)c1ccccc1)c1ccccc1)C(C)C)C(=O)NCC(=O)N[C@@H](CCCNC(=N)N)C(=O)N[C@@H](CCCNC(=N)N)C(=O)N[C@@H](CC(C)C)C(=O)N[C@@H](CO)C(=O)N[C@@H](Cc1ccc(O)cc1)C(=O)N[C@@H](CO)C(=O)N[C@@H](CCCNC(=N)N)C(=O)N[C@@H](CCCNC(=N)N)C(=O)N[C@@H](CCCNC(=N)N)C(=O)N[C@@H](Cc1ccccc1)C(=O)O [SynB3‐PVGLIG‐PTX, PTX‐2′OH‐malonyl‐PVGLIG‐SynB3] (X1-PVGLIGRRLSYSRRRF-OH) | mainly distributed in the transplanted gliomas | bladder, liver, kidneys, lungs, and brain | mean diameter of nanocomplex: 162 nm; Cleavage without MMP‐2 ([5]; 2.5 mg mL^−1, no MMP‐2, HPLC/MS, neither PVG‐PTX nor free PTX detected): could not be cleaved; Percentage of conjugate cleaved by MMP‐2 ([5]; 2.5 mg mL^−1 conjugate, activated MMP‐2 5 ng µL^−1, 0.5 h, HPLC/MS): about 41.18%; Fluorescent signal at 48 h ([3]; 5.25 µmol/5 mL kg^−1, 48 h): could still be detected in brain; Time at which the fluorescent signal in the brain tumor peaked ([3]; 5.25 µmol/5 mL kg^−1, tail vein, imaged 0.5–48 h): 12 h; PTX concentration in tumor, times that of the normal brain ([6]; 2 h after single dose 5.25 µmol/5 mL kg^−1 i.v.): 20 times; Concentration of PTX in the tumor tissue, finally reached ([6]; last time point (sampling 2, 4, 12 h), single dose 5.25 µmol/5 mL kg^−1 i.v., HPLC/MS, n = 5): 456.32 µg G^−1
4 | 3.41 | 3.42 | 3.29 | 2.51 | 3.18 | 3.67 | 3.33 | 3.38 | 3.55 | 2.48 | 3.06 | 3.88 | Cn1nnc2c(C(N)=O)ncn2c1=O [TMZ, Temozolomide] |  |  | Solubility in PBS (appearance) ([4]; 3 mg mL^−1 in PBS, visual): nearly insoluble
